Test system: amyloid-beta in CD31-positive vessels
Test: Assessment of CAA in APP23 mice by CD31/NT12 double fluorescence immunohistochemistry and image analysis
Assay type: in vivo, mouse
Description: Amyloid plaques were stained using a rabbit anti-Aβ primary antibody (NT12) which recognizes the C-terminal part of the amyloid peptide (the antibody was raised as described in Schrader-Fischer G and Paganetti P A, 1996, and Schrader-Fischer G et al., 1997). The vascular endothelial cells were detected using a rat anti-CD31 antibody (reference DIA310) from Dianova GmbH (Hamburg, Germany). All stainings were performed using the fully automated instrument Ventana Discovery® Ultra (Roche Diagnostics Schweiz AG, Rotkreuz, Switzerland). All chemicals were provided by Roche Diagnostic.
All study animals were used and brain tissue sections of 3 micrometers were freshly cut and collected on SuperFrost+ slides. The tissues sections were de-paraffinized and rehydrated under solvent-free conditions (EZprep solution) followed by antigen retrieval (demasking) performed by heat retrieval cycles for 32 min in a EDTA based buffer (CC1 solution). Subsequently, slides were blocked for 4 min using the DISCOVERY Inhibitor (reference 07017944001 (Roche)). The primary antibody diluted at 1/10′000 in antibody diluent was manually added on tissue sections and incubated for 1 h at room temperature. A short post-fixation (glutaraldehyde at 0.05%) was performed before applying the multimer UltraMap-anti Rabbit HRP ready to use antibody (reference 05269717001) for 16 min.
Detection was performed using the DISCOVERY FITC® following the manufacturer's recommendations. Slides were then heat denaturated at 92° C. for 20 min before a manual application of the second primary antibody (rat anti-CD31 diluted at 1/1′000 in antibody diluent) and incubated for 1 h. Multimer UltraMap-anti-Rat HRP antibody (reference 05891884001) was used for 20 min to detect CD31 in combination with the DISCOVERY Rhodamine kit (reference 07259883001).
The slides were washed and mounted using Prolong® Gold antifade reagent (reference P36931, ThermoFisher, Switzerland) and further scanned with the Hamamatsu slide scanner instrument (NanoZoomer 2.0 HT, scanning software NDP-Scan Vers. 2.5, Hamamatsu Photonics France, Swiss Office, Solothurn, Switzerland) at the 40× objective. The scanning settings were as follows: the exposure time with the DAPI filter was set at 28.5 ms as well as for the FITC filter and TRITC filter (detection of Rhodamine).
For the quantitative plaque and vessel-associated amyloid-beta evaluation based on image analysis, a proprietary image analysis platform (ASTORIA, Automated Stored Image Analysis) was developed based on MS Visual Studio 2010 and many functions from Matrox MIL V9 libraries (Matrox Inc, Quebec, Canada).
For the beta-amyloid plaque and vessel analysis, the following sequence of steps was performed: • Slides were scanned with Hamamatsu Nanozoomer at 40× magnification. […]

[1] = 0.3 g/kg food, 6 months, all CD31+ vessels
[2] = 0.3 g/kg food, 6 months, large CD31-positive vessels
[3] = 0.3 g/kg vs vehicle, all CD31+ vessels
[4] = 0.3 g/kg vs vehicle, large vessels
[5] = 0.3 g/kg vs vehicle, small + medium vessels

Compound: C[C@@]1(c2nc(NC(=O)c3ncc(C(F)(F)F)cc3Cl)ccc2F)CO[C@@](C)(C(F)(F)F)C(N)=N1 [Compound 1, N-(6-((3R,6R)-5-amino-3,6-dimethyl-6-(trifluoromethyl)-3,6-dihydro-2H-1,4-oxazin-3-yl)-5-fluoropyridin-2-yl)-3-chloro-5-(trifluoromethyl)picolinamide]
- % of large vessels with 0% Aβ (0.3 g/kg food, 6 months): 10.3 ± 1.56%
- % of large vessels with 1-10% Aβ (0.3 g/kg food, 6 months): 21.6 ± 2.31%
- % of large vessels with 10-25% Aβ (0.3 g/kg food, 6 months): 9.48 ± 1.85%
- % of large vessels with 25-50% Aβ (0.3 g/kg food, 6 months): 20.6 ± 3.66%
- % of large vessels with 50-75% Aβ (0.3 g/kg food, 6 months): 28.8 ± 3.3%
- % of large vessels with >10% Aβ (0.3 g/kg food, 6 months): 68.1 ± 3.03%
- % of large vessels with >75% Aβ (0.3 g/kg food, 6 months): 9.27 ± 2.77%
- % of small + medium vessels with 0% Aβ (0.3 g/kg food, 6 months): 80.2 ± 1.61%
- % of small + medium vessels with 1-10% Aβ (0.3 g/kg food, 6 months): 10.8 ± 1.12%
- % of small + medium vessels with 10-25% Aβ (0.3 g/kg food, 6 months): 2.75 ± 0.20%
- % of small + medium vessels with 25-50% Aβ (0.3 g/kg food, 6 months): 2.38 ± 0.25%
- % of small + medium vessels with 50-75% Aβ (0.3 g/kg food, 6 months): 1.73 ± 0.21%
- % of small + medium vessels with >10% Aβ (0.3 g/kg food, 6 months): 8.95 ± 0.8%
- % of small + medium vessels with >75% Aβ (0.3 g/kg food, 6 months): 2.07 ± 0.33%
- CAA Frequency (number small + medium vessels with >10% Aβ normalized to sample area, *10^7) (0.3 g/kg food, 6 months): 56 ± 6.1
- Number of large CD31+ vessels (normalized to total CD31 positive vessel numbers in %) (0.3 g/kg food, 6 months): 1.49 ± 0.12%
- Number of small + medium CD31+ vessels (normalized to total CD31 positive small + medium vessel numbers in %) (0.3 g/kg food, 6 months): 98.5 ± 0.12%
- Number small + medium vessels with >10% Aβ, mean ± SEM (0.3 g/kg food, 6 months): 195 ± 21.9
- Total number CD31+ vessels (normalized to total sample area, *10^5), mean ± SEM (0.3 g/kg food, 6 months): 6.46 ± 0.37
- Total vessel-associated NT12 area (normalized to total small + medium CD31+ vessel area) (0.3 g/kg food, 6 months): 0.194 ± 0.0201
- % of vessels with 0% Aβ [1]: 79.2 ± 1.63%
- % of vessels with 1-10% Aβ [1]: 11 ± 1.1%
- % of vessels with 10-25% Aβ [1]: 2.87 ± 0.21%
- % of vessels with 25-50% Aβ [1]: 2.65 ± 0.25%
- % of vessels with 50-75% Aβ [1]: 2.12 ± 0.24%
- % of vessels with >10% Aβ [1]: 9.82 ± 0.85%
- % of vessels with >75% Aβ [1]: 2.19 ± 0.36%
- CAA Frequency (number vessels with >10% Aβ normalized to sample area, *10^7) [1]: 70 ± 7.6
- Number vessels with >10% Aβ, mean ± SEM [1]: 217 ± 23.6
- Total vessel-associated NT12 area (normalized to total CD31+ area) [1]: 0.47 ± 0.04
- CAA Frequency (number vessels with >10% Aβ normalized to sample area, *10^7) [2]: 6.5 ± 0.6
- Number vessels with >10% Aβ, mean ± SEM [2]: 22 ± 2.2
- Total vessel-associated NT12 area (normalized to total CD31+ area) [2]: 0.77 ± 0.04
- % of large vessels with 0% Aβ, treatment effect vs vehicle (0.3 g/kg vs vehicle): −8%
- % of large vessels with 1-10% Aβ, treatment effect vs vehicle (0.3 g/kg vs vehicle): +48%
- % of large vessels with 10-25% Aβ, treatment effect vs vehicle (0.3 g/kg vs vehicle): +35%
- % of large vessels with 25-50% Aβ, treatment effect vs vehicle (0.3 g/kg vs vehicle): +7%
- % of large vessels with 50-75% Aβ, treatment effect vs vehicle (0.3 g/kg vs vehicle): −12%
- % of large vessels with >10% Aβ, treatment effect vs vehicle (0.3 g/kg vs vehicle): −8%
- % of large vessels with >75% Aβ, treatment effect vs vehicle (0.3 g/kg vs vehicle): −36%
- % of small + medium vessels with 0% Aβ, treatment effect vs vehicle (0.3 g/kg vs vehicle): +9%
- % of small + medium vessels with 1-10% Aβ, treatment effect vs vehicle (0.3 g/kg vs vehicle): −15%
- % of small + medium vessels with 10-25% Aβ, treatment effect vs vehicle (0.3 g/kg vs vehicle): −35%
- % of small + medium vessels with 25-50% Aβ, treatment effect vs vehicle (0.3 g/kg vs vehicle): −39%
- % of small + medium vessels with 50-75% Aβ, treatment effect vs vehicle (0.3 g/kg vs vehicle): −35%
- % of small + medium vessels with >10% Aβ, treatment effect vs vehicle (0.3 g/kg vs vehicle): −36%
- % of small + medium vessels with >75% Aβ, treatment effect vs vehicle (0.3 g/kg vs vehicle): −34%
- Total small + medium vessel-associated NT12 area (normalized to total CD31+ small + medium vessel area), treatment effect vs vehicle (0.3 g/kg vs vehicle): −28% p < 0.05
- % of vessels with 0% Aβ, treatment effect vs vehicle [3]: +9%
- % of vessels with 1-10% Aβ, treatment effect vs vehicle [3]: −13%
- % of vessels with 10-25% Aβ, treatment effect vs vehicle [3]: −32%
- % of vessels with 25-50% Aβ, treatment effect vs vehicle [3]: 36%
- % of vessels with 50-75% Aβ, treatment effect vs vehicle [3]: −33%
- % of vessels with >10% Aβ, treatment effect vs vehicle [3]: −34%
- % of vessels with >75% Aβ, treatment effect vs vehicle [3]: −34%
- CAA Frequency, treatment effect vs vehicle [3]: −29% p < 0.05
- Number vessels with >10% Aβ, treatment effect vs vehicle [3]: −39% p < 0.001
- Total vessel-associated NT12 area (normalized to total CD31+ area), treatment effect vs vehicle [3]: −19% n.s.
- CAA Frequency, treatment effect vs vehicle [4]: −17% n.s.
- Number vessels with >10% Aβ, treatment effect vs vehicle [4]: −21% n.s.
- Total vessel-associated NT12 area (normalized to total CD31+ area), treatment effect vs vehicle [4]: −4% n.s.
- CAA Frequency, treatment effect vs vehicle [5]: −37% p < 0.005
- Number vessels with >10% Aβ, treatment effect vs vehicle [5]: −40% p < 0.001

From US10722518B2, “Oxazine derivative for use in the treatment or prevention of cerebral amyloid angiopathy” (Novartis AG, priority 2016, dated 2020)
